“And” between values parts separate entries of the source, which are not always exact repeats. Equal entries are not always repeated.
Molecular target: Platelet-activating factor receptor (Homo sapiens, UniProt P25105)
Sequence (P25105 whole entry): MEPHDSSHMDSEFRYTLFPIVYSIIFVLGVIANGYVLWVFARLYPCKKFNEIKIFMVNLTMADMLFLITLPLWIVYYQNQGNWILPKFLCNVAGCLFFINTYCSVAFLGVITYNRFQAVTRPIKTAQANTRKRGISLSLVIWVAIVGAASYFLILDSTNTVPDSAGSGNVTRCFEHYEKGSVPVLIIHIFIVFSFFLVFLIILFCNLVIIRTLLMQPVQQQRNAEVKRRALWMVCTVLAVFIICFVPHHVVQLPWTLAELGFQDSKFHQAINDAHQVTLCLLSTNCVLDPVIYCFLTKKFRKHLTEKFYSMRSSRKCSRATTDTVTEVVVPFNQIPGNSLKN

SMILES	Ki
CCCCCCCCCCCCCCCCCCNC(=O)OCC1CCC(COP(=O)([O-])OCC[n+]2cccc3ccccc32)O1 (centres undefined) [NSC_108044]	0.129 µM and 0.13 µM
CCCCCCCCCCCCCCCCCCNC(=O)OCC(COCCCC[n+]1ccsc1)OC(=O)OC (centres undefined) [CAS_129364]	0.0386 µM and 0.0169 µM
Cc1nnc2n1-c1sc(Br)cc1C(c1ccccc1Cl)=NC2 [2-Bromo-4-(2-chloro-phenyl)-9-methyl-6H-1-thia-5,7,8,9a-tetraaza-cyclopenta[e]azulene]	0.0805 µM and 0.0174 µM
C[C@@H]1C(=O)O[C@H]2[C@H](O)C34[C@H]5C[C@@H](C(C)(C)C)C36C(O)C(=O)O[C@H]6O[C@@]4(C(=O)O5)[C@@]12O (some centres undefined) [BN 52021]	0.964 µM and 0.643 µM

Source: BindingDB's records for PubMed 2156995 (Rhone-Poulenc Sante, 1990)
